# What was measured:
# [1] = logP determination by HPLC (EEC directive 79/831 Annex V. A8); type: physicochemical; settings: gradient method, acetonitrile/0.1% aqueous phosphoric acid, preparation examples
# Protocol: The logP values were determined in accordance with EEC directive 79/831 Annex V. A8 by HPLC (gradient method, acetonitrile/0.1% aqueous phosphoric acid) […]
# Puccinia recondita = assay: Puccinia test (wheat)/protective; type: in vivo; settings: protective, application rate 100 g/ha, evaluation 10 days after inoculation, 0% = control, 100% = no infection
# Protocol: Puccinia test (wheat)/protective
# To produce a suitable preparation of active compound, 1 part by weight of active compound is mixed with the stated amounts of solvent and emulsifier, and the concentrate is diluted with water to the desired concentration.
# To test for protective activity, young plants are sprayed with the preparation of active compound at the stated application rate. After the spray coating has dried, the plants are sprayed with a conidia suspension of Puccinia recondita. The plants remain in an incubation cabin at 20° C. and 100% relative atmospheric humidity for 48 hours.
# The plants are then placed in a greenhouse at a temperature of about 20° C. and a relative atmospheric humidity of 80% to promote the development of rust pustules.
# Evaluation is carried out 10 days after the inoculation. 0% means an efficacy which corresponds to that of the control, whereas an efficacy of 100% means that no infection is observed.
Structure (SMILES),chromatographic logP [1],efficacy (Puccinia recondita) [%]
"CON=C(C1=NOCCO1)c1ccccc1CSc1ccn(-c2ccc(Cl)cc2)n1 [Example 1, [2-({[1-(4-chlorophenyl)-1H-pyrazol-3-yl]sulphanyl}methyl)phenyl](5,6-dihydro-1,4,2-dioxazin-3-yl)methanone O-methyloxime]",3.69,≥ 98
"CON=C(C(=O)OC)c1ccccc1CSc1ccn(-c2ccc(Br)cc2)n1 [Example 2, methyl [2-({[1-(4-bromophenyl)-1H-pyrazol-3-yl]sulphanyl}methyl)phenyl](methoxyimino)acetate]",4.07,–
"CNC(=O)C(=NOC)c1ccccc1CSc1ccn(-c2ccc(Br)cc2)n1 [Example 3, N-methyl-[2-( {[1-(4-bromophenyl)-1H-pyrazol-3-yl]sulphanyl}methyl)phenyl]-(methoxyimino)acetamide]",3.5,–
